Each structure is given as a SMILES string.

What is called EC50 is the concentration needed to bring the measured effect to its halfway point. The low end stands for greater potency, the high end for weaker potency. The term AUC(0-t) denotes exposure summed from dosing to a finite time, without extrapolation to infinity. High values mean more exposure, low ones less exposure.

For data set [1], the target named is T1, GLP-1 receptor (Homo sapiens, UniProt P43220).
T1 construct: expressed in transfected cells
T1 sequence (P43220 24-463, species assumed): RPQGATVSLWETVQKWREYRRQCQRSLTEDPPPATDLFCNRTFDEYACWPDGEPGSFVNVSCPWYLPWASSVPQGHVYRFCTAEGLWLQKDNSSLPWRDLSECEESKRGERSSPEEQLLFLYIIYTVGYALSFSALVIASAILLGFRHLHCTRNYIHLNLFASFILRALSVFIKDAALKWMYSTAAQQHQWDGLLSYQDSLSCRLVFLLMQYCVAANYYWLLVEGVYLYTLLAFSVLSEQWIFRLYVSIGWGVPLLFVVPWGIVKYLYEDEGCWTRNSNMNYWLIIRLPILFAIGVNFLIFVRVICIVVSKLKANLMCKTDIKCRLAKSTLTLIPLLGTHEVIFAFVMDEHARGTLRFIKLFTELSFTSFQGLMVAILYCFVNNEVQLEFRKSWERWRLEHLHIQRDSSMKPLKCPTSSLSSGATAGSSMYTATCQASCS
Briefly: GLP-1 activity assay (cAMP HTRF). As to conditions: U20S-GLP-1R stable transfected cell line, 30 minutes at 37°C. Format: cell-based. How it is done:
The agonistic effect of the test substance on the GLP-1 receptor was determined using a U20S-GLP-1R stable transfected cell line and a HTRF detection method.
• 1. According to the experimental procedure of the cAMP-Gs Dynamic HTRF kit, the 5x Stimulation buffer (SB) provided in the kit was diluted to 1xSB with ddH2O. IBMX was added to the 1xSB solution to a final concentration of 500 µM to prevent degradation of cAMP. Then, a working solution of the test substance was prepared using 1xSB and subjected to a series of gradient dilutions. • 2. U2OS-GLP-1R cells were digested and collected. After resuspending and counting, the cell density was diluted to 2x10^6 cells/mL using 1xSB solution. Then, 5 µL per well was seeded into a 384-well cell culture plate, resulting in 10,000 cells per well. • 3. The test substances were added at different concentrations into the corresponding cell wells at 5 µL per well, and incubated in a 37°C incubator for 30 minutes. • 4. According to the steps provided by the cAMP-Gs Dynamic HTRF kit, cAMP standard solutions of different concentrations were prepared and added into the 384-well plate. • 5. The cAMP d2 reagent and Eu Cryptate antibody provided in the kit were diluted to 1x using Lysis & Detection Buffer. Then, d2 and Eu solutions were added to the 384-well plate, 5 µL each well. After incubation at room temperature for 2 hours, the plate was read using the HTRF module (665/620 nm) of a microplate reader, and experimental data was collected. • 6. A curve was plotted using the signal value versus the compound concentration. Curve fitting and EC50 calculation were performed using nonlinear regression of GraphPad Prism software. […] Table 2: GLP-1 Activity of the compounds

Data set [2] is described as follows: Pharmacokinetic experiment in rats. Format: in vivo. As to conditions: rat, plasma; SD rats, male, intravenous, 0.2 mg/kg, sampling to 72 hours. How it is done:
Dulbecco's phosphate buffered saline (DPBS) (Batch No.: F2326001, Shanghai Aladdin Biochemical Technology Co., Ltd.). LC-MS instrument (Thermo TSQ Altis Plus).
SD rats: Male, 180-250g, purchased from Guangdong Vital River Laboratory Animal Technology Co., Ltd.
The test sample powder was accurately weighed and completely dissolved in Dulbecco's phosphate buffered saline free of Ca^2+/Mg^2+, mixed well to obtain a 0.1 mg/mL solution, and administered intravenously at a dose of 2 mL/kg.
After intravenous administration to the rats, approximately 200 µL of venous blood was collected into EDTA-K2 anticoagulant-coated EP tubes pre-dose and post-dose at 0, 0.5, 2, 5, 24, 48, and 72 hours . The blood was centrifuged at 12,000 rpm for 2 minutes. The plasma was collected and stored frozen at -20°C until analysis.
A certain amount of the test sample was accurately weighed and dissolved in DMSO to prepare a 2 mg/mL stock solution. An appropriate amount of the compound stock solution was accurately pipetted and diluted with an acetonitrile-aqueous solution (ACN:H2O=1:1) to prepare a series of standard solutions. […]
After determining the plasma drug concentration by LC-MS, the pharmacokinetic parameters in rats post-administration were calculated using a non-compartmental model with WinNonlin 6.1 software.

The molecule `CC[C@H](C)[C@H](NC(=O)[C@H](Cc1ccccc1)NC(=O)[C@H](CCC(=O)O)NC(=O)[C@H](CCCCNC(=O)COCCOCCNC(=O)COCCOCCNC(=O)CC[C@H](NC(=O)CCCCCCCCCCCCCCCCC(=O)O)C(=O)O)NC(=O)[C@H](C)NC(=O)[C@H](C)NC(=O)[C@H](CCC(N)=O)NC(=O)CNC(=O)[C@H](CCC(=O)O)NC(=O)[C@H](CC(C)C)NC(=O)[C@H](Cc1ccc(O)cc1)NC(=O)[C@H](CO)NC(=O)[C@H](CO)NC(=O)[C@@H](NC(=O)[C@H](CC(=O)O)NC(=O)[C@H](CO)NC(=O)[C@@H](NC(=O)[C@H](Cc1ccccc1)NC(=O)[C@@H](NC(=O)CNC(=O)[C@H](CCC(=O)O)NC(=O)C(C)(C)NC(=O)[C@H](Cc1c[nH]cn1)NC(=O)CN(CCNC(=O)C[C@H](NC(=O)CCCCCCCCCCCCCCC(=O)O)C(=O)O)C(=O)CN)[C@@H](C)O)[C@@H](C)O)C(C)C)C(=O)N[C@@H](C)C(=O)N[C@@H](Cc1c[nH]c2ccccc12)C(=O)N[C@@H](CC(C)C)C(=O)N[C@H](C(=O)N[C@@H](CCCNC(=N)N)C(=O)NCC(=O)N[C@@H](CCCNC(=N)N)C(=O)NCC(=O)O)C(C)C` [Example 2] came in with a 50% effective concentration (EC50) in data set [1] of 9.3 nM. For the same molecule, the AUC(0-t) in data set [2] turned out to be 101 µg·h/mL.

With `CC[C@H](C)[C@H](NC(=O)[C@H](Cc1ccccc1)NC(=O)[C@H](CCC(=O)O)NC(=O)[C@H](CCCCNC(=O)COCCOCCNC(=O)COCCOCCNC(=O)CC[C@H](NC(=O)CCCCCCCCCCCCCCCCC(=O)O)C(=O)O)NC(=O)[C@H](C)NC(=O)[C@H](C)NC(=O)[C@H](CCC(N)=O)NC(=O)CNC(=O)[C@H](CCC(=O)O)NC(=O)[C@H](CC(C)C)NC(=O)[C@H](Cc1ccc(O)cc1)NC(=O)[C@H](CO)NC(=O)[C@H](CO)NC(=O)[C@@H](NC(=O)[C@H](CC(=O)O)NC(=O)[C@H](CO)NC(=O)[C@@H](NC(=O)[C@H](Cc1ccccc1)NC(=O)[C@@H](NC(=O)CNC(=O)[C@H](CCC(=O)O)NC(=O)C(C)(C)NC(=O)[C@H](Cc1c[nH]cn1)NC(=O)CN(CCOCCOCCNC(=O)CC[C@H](NC(=O)CCCCCCCCCCCCCCC(=O)O)C(=O)O)C(=O)CN)[C@@H](C)O)[C@@H](C)O)C(C)C)C(=O)N[C@@H](C)C(=O)N[C@@H](Cc1c[nH]c2ccccc12)C(=O)N[C@@H](CC(C)C)C(=O)N[C@H](C(=O)N[C@@H](CCCNC(=N)N)C(=O)NCC(=O)N[C@@H](CCCNC(=N)N)C(=O)NCC(=O)O)C(C)C` [Example 3], the EC50 in data set [1] came out at 15.7 nM.

In the case of `CC[C@H](C)[C@H](NC(=O)[C@H](Cc1ccccc1)NC(=O)[C@H](CCC(=O)O)NC(=O)[C@H](CCCCNC(=O)COCCOCCNC(=O)COCCOCCNC(=O)CC[C@H](NC(=O)CCCCCCCCCCCCCCCCC(=O)O)C(=O)O)NC(=O)[C@H](C)NC(=O)[C@H](C)NC(=O)[C@H](CCC(N)=O)NC(=O)CNC(=O)[C@H](CCC(=O)O)NC(=O)[C@H](CC(C)C)NC(=O)[C@H](Cc1ccc(O)cc1)NC(=O)[C@H](CO)NC(=O)[C@H](CO)NC(=O)[C@@H](NC(=O)[C@H](CC(=O)O)NC(=O)[C@H](CO)NC(=O)[C@@H](NC(=O)[C@H](Cc1ccccc1)NC(=O)[C@@H](NC(=O)CNC(=O)[C@H](CCC(=O)O)NC(=O)C(C)(C)NC(=O)[C@H](Cc1c[nH]cn1)NC(=O)CN(CCOCCOCCNC(=O)C[C@H](NC(=O)CCCCCCCCCCCCCCC(=O)O)C(=O)O)C(=O)CN)[C@@H](C)O)[C@@H](C)O)C(C)C)C(=O)N[C@@H](C)C(=O)N[C@@H](Cc1c[nH]c2ccccc12)C(=O)N[C@@H](CC(C)C)C(=O)N[C@H](C(=O)N[C@@H](CCCNC(=N)N)C(=O)NCC(=O)N[C@@H](CCCNC(=N)N)C(=O)NCC(=O)O)C(C)C` [Example 4], the midpoint of the response in data set [1], the EC50, lay at 16.9 nM. With `CC[C@H](C)[C@H](NC(=O)[C@H](Cc1ccccc1)NC(=O)[C@H](CCC(=O)O)NC(=O)[C@H](CCCCNC(=O)COCCOCCNC(=O)COCCOCCNC(=O)CC[C@H](NC(=O)CCCCCCCCCCCCCCCCC(=O)O)C(=O)O)NC(=O)[C@H](C)NC(=O)[C@H](C)NC(=O)[C@H](CCC(N)=O)NC(=O)CNC(=O)[C@H](CCC(=O)O)NC(=O)[C@H](CC(C)C)NC(=O)[C@H](Cc1ccc(O)cc1)NC(=O)[C@H](CO)NC(=O)[C@H](CO)NC(=O)[C@@H](NC(=O)[C@H](CC(=O)O)NC(=O)[C@H](CO)NC(=O)[C@@H](NC(=O)[C@H](Cc1ccccc1)NC(=O)[C@@H](NC(=O)CNC(=O)[C@H](CCC(=O)O)NC(=O)C(C)(C)NC(=O)[C@H](Cc1c[nH]cn1)NC(=O)CN(CCNC(=O)CC[C@H](NC(=O)CCCCCCCCCCCCCCC(=O)O)C(=O)O)C(=O)[C@@H]1CCCN1)[C@@H](C)O)[C@@H](C)O)C(C)C)C(=O)N[C@@H](C)C(=O)N[C@@H](Cc1c[nH]c2ccccc12)C(=O)N[C@@H](CC(C)C)C(=O)N[C@H](C(=O)N[C@@H](CCCNC(=N)N)C(=O)NCC(=O)N[C@@H](CCCNC(=N)N)C(=O)NCC(=O)O)C(C)C` [Example 17], the EC50 in data set [1] came to 5.7 nM. In data set [2], this molecule displayed an AUC(0-t) of 99.3 µg·h/mL.
